Consider eight compounds from patent US12643887B2, “Heterocyclic derivatives with cardiomyocyte proliferation activity for treatment of heart diseases” (Tongji University, priority 2019, dated 2026).

A word on the IC50: it is the concentration that inhibits the measured activity by half.

Assay [1] has as its system Neonatal Rat Ventricular Myocytes (NRVMs). The assay can be described thus: Myocyte proliferation assay (EdU assay) in neonatal rat ventricular myocytes. Conditions: growth relative to blank myocyte growth without compound added; for Avg 1 uM (average myocyte proliferation): compound 1 uM; for Avg 3 uM (average myocyte proliferation): compound 3 uM; for Avg 10 uM (average myocyte proliferation): compound 10 uM. Type of assay: cell-based. In a few lines:
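Neonatal rat ventricular myocytes, fibroblast-depleted by preplating, serum-starved 24 h (2% FBS/ITS), then given compound at 10, 3 or 1 uM in 6% FBS medium for 36 h before 12 h EdU labelling. Fixed cells stained for EdU (Click-iT), ab8295 primary antibody and DAPI; quantified by high-content confocal imaging.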

In assay [2] the target is T1, human CLK1 (Homo sapiens, UniProt P49759).
T1 construct: Recombinant human CLK1 (129-end); GST (N); purchased SignalChem C57-11G; host or cells: Sf9 insect cells
The assay can be described thus: CLK1 enzyme assay (ADP-Glo). Type of assay: biochemical. Conditions: ADP-Glo, ATP 10 μM; read-out: CLK1 IC50. An outline of the steps: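 GST-tagged CLK1 (129-end, Sf9-expressed) at 16 nM was preincubated with compound 30 min at 25 °C in 40 mM Tris pH 7.5, 20 mM MgCl2, 0.1 mg/ml BSA, 50 μM DTT. Reaction with 2 μM substrate and 10 μM ATP ran 60 min at 25 °C. ADP-Glo luminescence gave IC50 by four-parameter fit.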
On the technique in general: In ADP-Glo the light output rises with the ADP produced.

T1 sequence (P49759 129-484 limits assumed): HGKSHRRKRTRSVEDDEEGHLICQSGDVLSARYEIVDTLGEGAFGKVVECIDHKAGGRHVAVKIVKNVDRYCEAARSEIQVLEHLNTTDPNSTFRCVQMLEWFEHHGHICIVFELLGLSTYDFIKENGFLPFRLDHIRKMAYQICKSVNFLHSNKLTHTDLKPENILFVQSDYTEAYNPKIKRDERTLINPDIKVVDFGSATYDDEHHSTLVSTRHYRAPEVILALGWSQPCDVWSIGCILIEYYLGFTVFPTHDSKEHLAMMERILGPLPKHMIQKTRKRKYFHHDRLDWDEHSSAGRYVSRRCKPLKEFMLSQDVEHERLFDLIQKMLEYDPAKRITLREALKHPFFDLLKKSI

Turning to `COc1ccc(NC2=N/C(=C\c3ccc4ncsc4c3)C(=O)N2)cc1` [Example 25, (Z)-5-(benzo[d]thiazol-6-ylmethylene)-2-((4-methoxyphenyl)amino)-3,5-dihydro-4H-imidazol-4-one], in assay [1], the “Avg 1 uM (average myocyte proliferation)” value is listed as “** (10%-50%)”, the “Avg 3 uM (average myocyte proliferation)” value is listed as “* (<10% growth relative to blank myocyte growth without compound added.)” and the “Avg 10 uM (average myocyte proliferation)” value (from here on “Avg 10 uM”) is reported as “* (<10% growth relative to blank myocyte growth without compound added.)”. In assay [2], the IC50 is less than 0.1 µM.
Consider `Cn1ncc2cc(/C=C3\N=C(Nc4ccc5ncsc5c4)NC3=O)ccc21` [Example 78, (Z)-2-(benzo[d]thiazol-6-ylamino)-5-((1-methyl-1H-indazol-5-yl)methylene)-3,5-dihydro-4H-imidazol-4-one], for which, in assay [1], the “Avg 1 uM (average myocyte proliferation)” value is “* (<10% growth relative to blank myocyte growth without compound added.)” and the “Avg 3 uM (average myocyte proliferation)” value is on record as “* (<10% growth relative to blank myocyte growth without compound added.)”. Further, the IC50 in assay [2] is greater than 10 µM.
For the compound `O=C1NC(N(Cc2ccccc2)c2ccccc2)=N/C1=C\c1ccc2[nH]cnc2c1` [Example 35, (Z)-5-((1H-benzo[d]imidazol-5-yl)methylene)-2-(benzyl(phenyl)amino)-3,5-dihydro-4H-imidazol-4-one], in assay [1], the “Avg 1 uM (average myocyte proliferation)” value was “* (<10% growth relative to blank myocyte growth without compound added.)” and the “Avg 3 uM (average myocyte proliferation)” value was “* (<10% growth relative to blank myocyte growth without compound added.)”. For the same compound, the IC50 in assay [2] fell in the range of 0.1 to 1 µM.
On to `CN(Cc1ccccc1)C1=N/C(=C\c2ccc3c(c2)OCO3)C(=O)N1` [Example 23, (Z)-5-(benzo[d][1,3]dioxol-5-ylmethylene)-2-(benzyl(methyl)amino)-3,5-dihydro-4H-imidazol-4-one], for which, in assay [1], the “Avg 1 uM (average myocyte proliferation)” value is reported as “** (10%-50%)”, the “Avg 3 uM (average myocyte proliferation)” value is listed as “** (10%-50%)” and the “Avg 10 uM” value is on record as “** (10%-50%)”. For the same compound, in assay [2], the 50% inhibitory concentration (IC50) lay within 0.1 to 1 µM.
For the compound `O=C1NC(Nc2ccccc2)=N/C1=C\c1ccc2[nH]ncc2c1` [Example 55, (Z)-5-((1H-indazol-5-yl)methylene)-2-(phenylamino)-3,5-dihydro-4H-imidazol-4-one], in assay [1], the “Avg 1 uM (average myocyte proliferation)” value is recorded as “* (<10% growth relative to blank myocyte growth without compound added.)” and the “Avg 3 uM (average myocyte proliferation)” value was “* (<10% growth relative to blank myocyte growth without compound added.)”. Also, in assay [2], the IC50 is less than 0.1 µM.
Take `O=C1NC(Nc2ccccc2)=N/C1=C\c1ccc2[nH]cnc2c1` [Example 26, (Z)-5-((1H-benzo[d]imidazol-5-yl)methylene)-2-(phenylamino)-3,5-dihydro-4H-imidazol-4-one]: in assay [1], the “Avg 1 uM (average myocyte proliferation)” value is “* (<10% growth relative to blank myocyte growth without compound added.)”, the “Avg 3 uM (average myocyte proliferation)” value is on record as “* (<10% growth relative to blank myocyte growth without compound added.)” and the “Avg 10 uM” value was “* (<10% growth relative to blank myocyte growth without compound added.)”. In addition, the concentration for half-maximal inhibition (IC50) in assay [2] was less than 0.1 µM.
`Cn1cnc2ccc(/C=C3\N=C(Nc4ccccc4)NC3=O)cc21` [Example 46, (Z)-5-((1-methyl-1H-benzo[d]imidazol-6-yl)methylene)-2-(phenylamino)-3,5-dihydro-4H-imidazol-4-one]: in assay [1], the “Avg 1 uM (average myocyte proliferation)” value was “*** (>50%)”, the “Avg 3 uM (average myocyte proliferation)” value is reported as “** (10%-50%)” and the “Avg 10 uM” value is recorded as “*** (>50%)”. The IC50 in assay [2] is less than 0.1 µM.
Turning to `CN(C1=N/C(=C\c2ccc3ncsc3c2)C(=O)N1)c1ccc([N+](=O)[O-])cc1` [Example 43, (Z)-5-(benzo[d]thiazol-6-ylmethylene)-2-(methyl(4-nitrophenyl)amino)-3,5-dihydro-4H-imidazol-4-one], in assay [1], the “Avg 1 uM (average myocyte proliferation)” value is reported as “** (10%-50%)”, the “Avg 3 uM (average myocyte proliferation)” value is recorded as “** (10%-50%)” and the “Avg 10 uM” value is “** (10%-50%)”. Also, the IC50 in assay [2] was in the range of 1 to 10 µM.
